The assay deals with T-regulatory cells (FOXP3+ T-regs), TH17 cells. Nature of the assay: Circulating T-regulatory and TH17 cells in rats. The assay is classed as in vivo. The settings on record: rats, 4 days in drinking water.

As to `O=C([O-])CC(O)(CC(=O)[O-])C(=O)[O-].[Na+].[Na+].[Na+]` [Na Citrate], the “circulating anti-inflammatory T cells (FOXP3+ T-regs)” value is on record as “no effect”.

The record behind these values is US11324774B2, “Compositions of oral alkaline salts and metabolic acid inducers and uses thereof” (Augusta University Research Institute, Inc., priority 2018, dated 2022).
